How the values were obtained:
[1] = tested on: homozygous dy^W/dy^W mice deficient in laminin-α2 expression; assay: Skeletal deformation (kyphosis) by X-ray analysis and visual scoring (FIG. 5); format: in vivo, mouse; conditions: dy^W/dy^W mice at 11 weeks of age, 1 mg/kg; example animal; vehicle 66°
Method: The beneficial and therapeutically relevant effect of N-(dibenz(b,f)oxepin-10-ylmethyl)-N-methyl-N-prop-2-ynylammonium maleate (omigapil) on the skeletal deformation (i.e. kyphosis) was tested in a mouse model for MDC1A deficient in laminin-α2 expression. For this, homozygous dy^W/dy^W mice were treated with omigapil (at a dose of 1 mg/kg body weight) and their kyphosis was scored at 11 weeks of age by visual inspection and X-ray analysis and compared to the extent of kyphosis seen in homozygous dy^W/dy^W mice treated with vehicle only and untreated wildtype mice. The treatment regime was as described in example 1.
Spinal deformation was documented by X-ray pictures of an age-matched wild-type mouse (A), a vehicle-treated (B) and an 1 mg/kg omigapil-treated dy^W/dy^W mouse (C). The kyphosis was quantified in living animals using a visual scoring system (1: barely detectable, 2: mild, 3: moderate, 4: severe) (D). 9 vehicle- and 7 omigapil-treated animals were analyzed.

[2] = tested on: homozygous dy^W/dy^W mice deficient in laminin-α2 expression; assay: Body weight gain in mouse model for MDC1A (FIG. 2); format: in vivo; conditions: vehicle maximally 11%
Method: Example 2 describes the therapeutically relevant effect of N-(dibenz(b,f)oxepin-10-ylmethyl)-N-methyl-N-prop-2-ynylammonium maleate (omigapil) on the body weight gain in a mouse model for MDC1A deficient in laminin-α2 expression. Starting at day fifteen, homozygous dy^W/dy^W mice were treated with omigapil. Their individual body weights were assessed daily and compared to homozygous dy^W/dy^W mice treated with vehicle only (control group). For this, omigapil was given to dy^W/dy^W-mice at doses of 0.1 or 1 mg/kg body weight, respectively. The treatment regime was as described in example 1.
Newborn dy^W/dy^W mice were genotyped and randomly assigned to the vehicle or the 0.1 and 1 mg/kg omigapil groups. The individual body weights were assessed daily and the mean body weight were calculated every week. The percentage of mice above an average body weight of twelve grams is shown grouped according to age (between 6 and 11 weeks) for each treatment group. In total 27, 34 and 25 animals were included into the vehicle, the 0.1 and the 1 mg/kg omigapil group, respectively.

[3] = tested on: homozygous dy^W/dy^W mice deficient in laminin-α2 expression; assay: Voluntary exploratory locomotory activity in a new cage (FIG. 6); format: in vivo, mouse; conditions: dy^W/dy^W mice at 6 weeks of age; for locomotory activity in the 10-minute test period: vehicle 236 seconds, p-value<0.05
Method: The therapeutically relevant effect of N-(dibenz(b,f)oxepin-10-ylmethyl)-N-methyl-N-prop-2-ynylammonium maleate (omigapil) on the voluntary locomotion was tested in a mouse model for MDC1A deficient in laminin-α2 expression. Starting at day fifteen, homozygous dy^W/dy^W mice were treated with omigapil at doses of 0.1 or 1 mg/kg body weight. Their individual exploratory locomotory activity was assessed at 6 weeks of age and compared to age-matched dy^W/dy^W mice treated with vehicle only. The treatment regime was as described in example 1.
It can be concluded that omigapil increases locomotory activity in an animal model for muscular dystrophy caused by laminin α2-deficiency.
Newborn dy^W/dy^W mice were genotyped and randomly assigned to the vehicle or the 0.1 and 1 mg/kg omigapil groups. The voluntary locomotory activity was measured within the first 10 minutes after having placed the animal in a new cage. […] The difference in activity is statistically significant for both omigapil treatments (asterisk: p-value<0.05). In total 13, 15 and 10 animals were included into the vehicle, the 0.1 and the 1 mg/kg omigapil group, respectively.

[4] = tested on: homozygous dy^W/dy^W mice deficient in laminin-α2 expression; assay: Muscle fiber size distribution in Triceps muscle (FIG. 4); format: in vivo, mouse; conditions: dy^W/dy^W mice at 6 weeks of age, 0.1 mg/kg; vehicle 8%; p-value<0.05
Method: The effect of N-(dibenz(b,f)oxepin-10-ylmethyl)-N-methyl-N-prop-2-ynylammonium maleate (omigapil) on muscle fiber size distribution was tested in a mouse model for MDC1A deficient in laminin-α2 expression. Muscle fiber diameters were analyzed in Triceps muscle of 6 weeks old dy^W/dy^W mice treated with 0.1 mg/kg body weight omigapil or with vehicle only. The treatment regime was as described in example 1.
It can be concluded from this increase in large diameter myofibers that omigapil improves muscle histology in an animal model for muscular dystrophy caused by laminin α2-deficiency.
Newborn dy^W/dy^W mice were genotyped and randomly assigned to the vehicle or omigapil group. The myofiber diameters were measured following methods known to the skilled artist (Briguet, A., Courdier-Fruh, I., Foster, M., Meier, T., Magyar, J. P. (2004)—“Histological parameters for the quantitative assessment of muscular dystrophy in the mdx-mouse”, Neuromuscul Disord 14(10): 675-82). For each muscle all muscle fibers of one cross section were included into the analysis. 7 animals were analyzed per treatment group. 8% of the myofibers in the Triceps muscle of the vehicle-treated dy^W/dy^W mice had muscle diameters above 50 micrometers at 6 weeks of age while 15% of myofibres in the omigapil-treated group fulfilled this criteria. Asterisk: p-value<0.05.

[5] = tested on: homozygous dy^W/dy^W mice deficient in laminin-α2 expression; assay: Skeletal muscle apoptosis (TUNEL) in Triceps muscle (FIG. 3); format: in vivo, mouse; conditions: dy^W/dy^W mice at 6 weeks of age, 0.1 mg/kg
Method: The effect of N-(dibenz(b,f)oxepin-10-ylmethyl)-N-methyl-N-prop-2-ynylammonium maleate (omigapil) on skeletal muscle apoptosis was tested in a mouse model for MDC1A deficient in laminin-α2 expression. Starting at day fifteen, homozygous dy^W/dy^W mice were treated with omigapil. The number of apoptotic myonuclei were analyzed and compared to the number of apoptotic myonuclei determined in homozygous dy^W/dy^W mice treated with vehicle only and to the number of apoptotic myonuclei determined in untreated wild-type mice. For this, omigapil was given to dy^W/dy^W-mice at a dose of 0.1 mg/kg body weight according to the treatment regime described in example 1. […]
Newborn dy^W/dy^W mice were genotyped and randomly assigned to the vehicle or omigapil group. The apoptotic myonuclei in the Triceps foreleg muscle were determined by counting muscle fibers positively stained for Terminal dUTP nick end labeling (TUNEL). […] The relative number of apoptotic myofibres was calculated by dividing the number of TUNEL positive myonuclei by the total number of myofibres. 7 animals were analyzed per treatment group. 1.1% of the myofibers in the Triceps muscle of the vehicle-treated dy^W/dy^W mice had apoptotic myonuclei at 6 weeks of age while only 0.7% apoptotic myofibres were detected in the omigapil-treated group. […]

[6] = tested on: homozygous dy^W/dy^W mice deficient in laminin-α2 expression; assay: Survival rate in mouse model for MDC1A (Kaplan-Meier, FIG. 1); format: in vivo; conditions: 0.1 mg/kg once daily (i.p., then gavage from 4th week), 1 out of 13 animals, vehicle 6 out of 15 (=40%)
Method: The effect of N-(dibenz(b,f)oxepin-10-ylmethyl)-N-methyl-N-prop-2-ynylammonium maleate (omigapil) on the survival rate was tested in a mouse model for MDC1A deficient in laminin-α2 expression. Starting at day fifteen, homozygous dy^W/dy^W mice were treated with omigapil. Their survival rate was compared to homozygous dy^W/dy^W mice treated with vehicle only. For this, omigapil was dissolved in 0.5% w/v ethanol to a final concentration of 20 μg/ml. The treatment regime was as follows: omigapil (20 μg/ml in 0.5% ethanol) was applied to 3 week old dy^W/dy^W-mice by intraperitoneal (i.p.) injection once per day; from the 4th week of age onwards mice received the same concentration of omigapil once per day by gavage feeding instead of i.p. application. The final dose of omigapil given to dy^W/dy^W-mice at all times was 0.1 mg/kg body weight, once daily following the guidance as described elsewhere (Sagot Y. et al. (2000)—An orally active anti-apoptotic molecule (CGP 3466B) preserves mitochondria and enhances survival in an animal model of motoneuron disease. Br. J. Pharmacol. 131:721-728). Control mice received the equivalent amount of vehicle only. […]

[7] = target: glyceraldehyde-3-phosphate dehydrogenase (GAPDH) (Homo sapiens, UniProt P04406); conditions: reported in J. Biol. Chem. 273:5821-5828; cited from earlier work
glyceraldehyde-3-phosphate dehydrogenase (GAPDH), sequence (P04406 whole entry, species assumed): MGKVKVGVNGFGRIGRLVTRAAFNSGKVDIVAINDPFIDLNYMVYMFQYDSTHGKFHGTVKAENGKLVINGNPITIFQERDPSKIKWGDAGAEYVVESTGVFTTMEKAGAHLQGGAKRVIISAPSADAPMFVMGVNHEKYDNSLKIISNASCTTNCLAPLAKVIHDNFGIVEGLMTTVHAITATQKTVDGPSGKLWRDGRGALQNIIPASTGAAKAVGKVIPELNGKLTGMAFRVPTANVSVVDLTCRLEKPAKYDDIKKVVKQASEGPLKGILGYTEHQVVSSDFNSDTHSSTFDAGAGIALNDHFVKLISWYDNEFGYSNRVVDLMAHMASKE

Molecule	angle spanned by the spine (kyphosis, X-ray) [1] [°]	percentage of mice that reached a body weight above 12 grams within the first 11 weeks of age ([2]; 0.1 mg/kg omigapil) [%]	percentage of mice that reached a body weight above 12 grams within the first 11 weeks of age ([2]; 1 mg/kg omigapil) [%]	increase in locomotory activity compared to vehicle group ([3]; 0.1 mg/kg) [%]	locomotory activity in the 10-minute test period ([3]; 0.1 mg/kg) [seconds]	increase in locomotory activity compared to vehicle group ([3]; 1 mg/kg) [%]	locomotory activity in the 10-minute test period ([3]; 1 mg/kg) [seconds]	myofibres with muscle fiber diameters above 50 micrometers in the Triceps muscle [4] [%]	reduction in apoptotic myofibres compared to vehicle ([5]; Triceps muscle) [%]	apoptotic myofibres in the Triceps muscle (TUNEL) ([5]; vehicle 1.1%) [%]	animals died within the first 80 days of age [6] [%]	binding to GAPDH [7]
N-(dibenz(b,f)oxepin-10-ylmethyl)-N-methyl-N-prop-2-ynylammonium maleate [omigapil]	89	25	43	39	330	26	301	15	35	0.7	8	
C#CCN(C)CC1=Cc2ccccc2Oc2ccccc21 [compound of formula (I), N-(dibenz(b,f)oxepin-10-ylmethyl)-N-methyl-N-prop-2-ynylamine]												binds to glyceraldehyde-3-phosphate dehydrogenase (GAPDH)
